Data published in patent publication US20190343908A1, “Therapeutic Combination for the Treatment of Cancer” (Nerium Biotechnology Inc., priority 2011, published 2019).

Columns and labels:
[1] = system: LNCaP prostate cancer cell line; experiment: Methyl-Tetrazolium viability assay, LNCaP; type: cell-based, human; details: for ABSORBANCE: LNCaP, 0.1 μg/mL cisplatin
Text: The Methyl-Tetrazolium dye assay measures the activity of enzymes in mitochondria. The dye precursor is taken up by cells, where it undergoes reduction to the purple formazan. It measures only the mitochondrial activity and, thus, it is not always a reliable indication of whether the cells themselves are alive or dead, since even a recently dead cell has […] enzyme activity in mitochondria. Intracellular glucose concentration, pH, and time before assay all affect the measurements.
(§1) The Methyl Tetrazolium, Sulforhodamine B, and Crystal Violet assays were used to assess cell viabilities. The incubation times were 24 hours, 48 hours, and 72 hours. The Nerium oleander extract Anvirzel™ (a hot water extract of oleander obtained from Salud Integral, Honduras) was tested in concentrations ranging from 0.01 ng/mL to 10 ng/mL.
(§2) Cells were detached by trypsinization (Trypsin-0.25% EDTA, Invitrogen, 25200-072) during the logarithmic phase of culture growth and plated in 96-well plates (18.000 cells/well) (Corning, Costar 359) in a final volume of 200 μl of medium per well. […] The absorbance was measured after 24 hours, 48 hours, and 72 hours of incubation.
For the Methyl-Tetrazolium assay, the dye (Sigma, M2128; 5 mg/mL, diluted in phosphate-buffered saline) was added to each well and plates were incubated for 3 hours at 37° C. After the end of the incubation period, the medium was discarded and the cells were rinsed with phosphate-buffered saline. Finally, the formazan crystals were dissolved in dimethylsulphoxide (Sigma, D4540).
(§3) The optical density of each plate was measured on a μQuant spectrophotometer and the data were analyzed with Gen5 software (μQuant Biomolecular Spectrophotometer MQX200 and Gen5™ Microplate Data Collection & Analysis software, BioTek® Instruments. Inc, April 2008). Absorbance was measured at 570 nm for all assays and a second wavelength was measured in order to subtract noise. For the Methyl-Tetrazolium assay this second wavelength was 630 nm and for the Sulforhodamine B and Crystal Violet assays it was 690 nm.

[2] = system: MCF-7 (human breast cancer); experiment: Sulforhodamine B viability assay, MCF-7; type: cell-based; design: key: absorbance (optical density) at 570 nm, second wavelength subtracted
Text: Three different viability assays were chosen to complement each other and yielded results dependent on concentration and cell line: the Methyl Tetrazolium dye assay, the Sulforhodamine B fluorescent dye assay, and the Crystal Violet dye assay.
The Sulforhodamine B and Crystal Violet assays provide information about protein and were used to complement the Methyl-Tetrazolium dye assay. […] It is used for the quantification of cellular proteins of cultured cells. The assay using Crystal Violet, a dye that binds electrostatically to proteins and stains DNA, provides a reliable, simple assay for measuring viability of cells.
as §1, §2
For the Sulforhodamine B assay, 96-well plates were fixed by 10% trichloroacetic acid (Fluka, 91228) and were incubated at 4° C. for 1 hour. Afterwards, plates were rinsed with water and cells were stained with 0.4% Sulforhodamine B (Sigma, 341738), dissolved in 1% acetic acid (Carlo Ebra, 401422) for 15 minutes at room temperature (RT). The unbound stain was washed twice with 1% acetic acid. Finally, 10 mM Tris Buffer pH 10.5 (Sigma, T6791) was added to dissolve the dye.
as §3

Compound: N.N.[Cl][Pt][Cl] [cisplatin]
- MTT Average ([1]; LNCaP Run 3, 24 h, 0.1 μg/ml CDDP): 0.11
- MTT Average ([1]; LNCaP Run 3, 24 h, 1 μg/ml CDDP): 0.008
- MTT Average ([1]; LNCaP Run 3, 24 h, 10 μg/ml CDDP): 0.017
- MTT Average ([1]; LNCaP Run 3, 24 h, 100 μg/ml CDDP): 0.006
- MTT Average ([1]; LNCaP Run 3, 48 h, 0.1 μg/ml CDDP): 0.157
- MTT Average ([1]; LNCaP Run 3, 48 h, 1 μg/ml CDDP): 0.011
- MTT Average ([1]; LNCaP Run 3, 48 h, 10 μg/ml CDDP): 0.009
- MTT Average ([1]; LNCaP Run 3, 48 h, 100 μg/ml CDDP): 0.009
- MTT Average ([1]; LNCaP Run 3, 72 h, 0.1 μg/ml CDDP): 0.171
- MTT Average ([1]; LNCaP Run 3, 72 h, 1 μg/ml CDDP): 0.01
- MTT Average ([1]; LNCaP Run 3, 72 h, 10 μg/ml CDDP): 0.009
- MTT Average ([1]; LNCaP Run 3, 72 h, 100 μg/ml CDDP): 0.008
- ABSORBANCE ([1]; 48 h): 0.161
- ABSORBANCE ([1]; 72 h): 0.17
- Average MTT 24 h ([1]; Run 1, 0.1 μg/ml CDDP): 0.061
- Average MTT 48 h ([1]; Run 1, 0.1 μg/ml CDDP): 0.116
- Average MTT 24 h ([1]; Run 1, 1 μg/ml CDDP): 0.012
- Average MTT 48 h ([1]; Run 1, 1 μg/ml CDDP): 0.015
- Average MTT 72 h ([1]; Run 1, 1 μg/ml CDDP): 0.016
- Average MTT 24 h ([1]; Run 1, 10 μg/ml CDDP): 0.02
- Average MTT 48 h ([1]; Run 1, 10 μg/ml CDDP): 0.011
- Average MTT 72 h ([1]; Run 1, 10 μg/ml CDDP): 0.01
- Average MTT 24 h ([1]; Run 1, 100 μg/ml CDDP): 0.011
- Average MTT 48 h ([1]; Run 1, 100 μg/ml CDDP): 0.017
- Average MTT 72 h ([1]; Run 1, 100 μg/ml CDDP): 0.01
- Average MTT 24 h ([1]; Run 2, 0.1 μg/ml CDDP): 0.136
- Average MTT 48 h ([1]; Run 2, 0.1 μg/ml CDDP): 0.161
- Average MTT 72 h ([1]; Run 2, 0.1 μg/ml CDDP): 0.17
- Average MTT 24 h ([1]; Run 2, 1 μg/ml CDDP): 0.01
- Average MTT 48 h ([1]; Run 2, 1 μg/ml CDDP): 0.016
- Average MTT 72 h ([1]; Run 2, 1 μg/ml CDDP): 0.026
- Average MTT 24 h ([1]; Run 2, 10 μg/ml CDDP): 0.014
- Average MTT 48 h ([1]; Run 2, 10 μg/ml CDDP): 0.015
- Average MTT 72 h ([1]; Run 2, 10 μg/ml CDDP): 0.012
- Average MTT 24 h ([1]; Run 2, 100 μg/ml CDDP): 0.017
- Average MTT 48 h ([1]; Run 2, 100 μg/ml CDDP): 0.015
- Average MTT 72 h ([1]; Run 2, 100 μg/ml CDDP): 0.012
- SRB Average ([2]; MCF-7, Run 2, 24 h, 0.1 μg/ml CDDP): 1.754
- SRB Average ([2]; MCF-7, Run 2, 24 h, 1 μg/ml CDDP): 1.225
- SRB Average ([2]; MCF-7, Run 2, 24 h, 10 μg/ml CDDP): 1.717
- SRB Average ([2]; MCF-7, Run 2, 24 h, 100 μg/ml CDDP): 1.056
- SRB Average ([2]; MCF-7, Run 2, 48 h, 0.1 μg/ml CDDP): 2.037
- SRB Average ([2]; MCF-7, Run 2, 48 h, 1 μg/ml CDDP): 0.874
- SRB Average ([2]; MCF-7, Run 2, 48 h, 10 μg/ml CDDP): 0.88
- SRB Average ([2]; MCF-7, Run 2, 48 h, 100 μg/ml CDDP): 0.985
- SRB Average ([2]; MCF-7, Run 2, 72 h, 0.1 μg/ml CDDP): 2.289
- SRB Average ([2]; MCF-7, Run 2, 72 h, 1 μg/ml CDDP): 1.409
- SRB Average ([2]; MCF-7, Run 2, 72 h, 10 μg/ml CDDP): 1.179
- SRB Average ([2]; MCF-7, Run 2, 72 h, 100 μg/ml CDDP): 0.897
- SRB Average ([2]; MCF-7, Run 3, 24 h, 0.1 μg/ml CDDP): 2.843
- SRB Average ([2]; MCF-7, Run 3, 24 h, 1 μg/ml CDDP): 1.805
- SRB Average ([2]; MCF-7, Run 3, 24 h, 10 μg/ml CDDP): 2.092
- SRB Average ([2]; MCF-7, Run 3, 24 h, 100 μg/ml CDDP): 1.077
- SRB Average ([2]; MCF-7, Run 3, 48 h, 0.1 μg/ml CDDP): 2.371
- SRB Average ([2]; MCF-7, Run 3, 48 h, 1 μg/ml CDDP): 1.787
- SRB Average ([2]; MCF-7, Run 3, 48 h, 10 μg/ml CDDP): 1.338
- SRB Average ([2]; MCF-7, Run 3, 48 h, 100 μg/ml CDDP): 1.673
- SRB Average ([2]; MCF-7, Run 3, 72 h, 0.1 μg/ml CDDP): 2.522
- SRB Average ([2]; MCF-7, Run 3, 72 h, 1 μg/ml CDDP): 1.885
- SRB Average ([2]; MCF-7, Run 3, 72 h, 10 μg/ml CDDP): 1.622
- SRB Average ([2]; MCF-7, Run 3, 72 h, 100 μg/ml CDDP): 1.181
- SRB Average ([2]; MCF-7 Run 1, 24 h, 0.1 μg/ml CDDP): 2.066
- SRB Average ([2]; MCF-7 Run 1, 24 h, 1 μg/ml CDDP): 1.404
- SRB Average ([2]; MCF-7 Run 1, 24 h, 10 μg/ml CDDP): 1.825
- SRB Average ([2]; MCF-7 Run 1, 24 h, 100 μg/ml CDDP): 1.579
- SRB Average ([2]; MCF-7 Run 1, 48 h, 0.1 μg/ml CDDP): 2.67
- SRB Average ([2]; MCF-7 Run 1, 48 h, 1 μg/ml CDDP): 1.873
- SRB Average ([2]; MCF-7 Run 1, 48 h, 10 μg/ml CDDP): 1.731
- SRB Average ([2]; MCF-7 Run 1, 48 h, 100 μg/ml CDDP): 1.452
- SRB Average ([2]; MCF-7 Run 1, 72 h, 0.1 μg/ml CDDP): 2.779
- SRB Average ([2]; MCF-7 Run 1, 72 h, 1 μg/ml CDDP): 1.762
- SRB Average ([2]; MCF-7 Run 1, 72 h, 10 μg/ml CDDP): 1.702
- SRB Average ([2]; MCF-7 Run 1, 72 h, 100 μg/ml CDDP): 1.024
